Paper PMC10064330, “Reversible Dual-Covalent Molecular Locking of the 14-3-3/ERRγ Protein–Protein Interaction as a Molecular Glue Drug Discovery Approach” (Journal of the American Chemical Society, 2023)

Target: T1, 14-3-3γ/ERRγ complex (Homo sapiens, UniProt P61981+P62508)
T1 construct: made in house; host or cells: E. coli NiCo21 (DE3)
Assay: Time-dependent fluorescence anisotropy (TD-FA) of ternary complex formation
Format: binding
Protocol: Time-dependent fluorescence anisotropy (TD-FA) measurements provided insights in the kinetics of ternary complex (14-3-3/ERRγ/lock) formation (Figures S2 and S3). All fragments reached saturation by ∼12 h. […] Carboxamides 4–6 and 8–10 reached saturation within 5 h.
TD-FA experiments were also performed at different pH values to study ternary complex (14-3-3γ/ERRγ/compound) formation and the importance of the imine bond in the molecular lock (Figure 3b,c and Figures S14–S16). […] Similarly, the avidity of the 14-3-3/ERRγ/1 complex at equilibrium was not affected by pH (Figure 3b). In contrast, 5 and 10 elicited an inverse relationship between pH and KD^app (Figure 3c and Figure S14), connected to impaired imine bond formation at low pH.
In contrast, the formation of the ternary complexes of 14-3-3γ/ERRγ/compound with 1, 5, and 10 was time-dependent and pH-responsive (Figure 3b,c and Figures S15 and S16). […] At pH 6.5, the kinetics of disulfide bond formation was 50% slower. For instance, at pH 6.5, the maximum effect of 1 was reached after a 4.2 h incubation, compared to 1.7–0.8 h for pH 7.0–8.0 (Figure S16g). […] Effective disulfide formation thus appeared to aid in the imine bond formation of the dual-covalent locks. Combining the two reactive handles increased the effective molar concentration of the lock within the binding pocket, illustrating the need for dual reactivity and leading to enhanced 14-3-3/ERRγ avidity.
Figure S2. Time resolved fluorescence anisotropy screen. Time dependent results of 14-3-3γ titration to 10 nM fluorescein-labelled ERRγ peptide in presence of 100 µM compound 1-10 (or DMSO as negative control).
Fluorescence anisotropy was measured every 15 minutes for the first 2 hours after which it was measured every hour for 15 hours. The plate was measured one more time after 24 hours incubation.
(1 picture or pasted object on this page, not shown here)
Figure S3. Time-dependent FA-based apparent Kd analysis. Determined apparent K from fluorescence […]
anisotropy binding curves (see figure S1) and plotted over time (top row) for all compounds in this study to show a time dependent decrease in KD (increase in affinity) between 14-3-3γ and ERRγ as induced by the compounds.
Bottom graphs show the normalized version of the top graphs where the KD at t=0h was set to no effect (0%) and […]
Figure S16. Time- and pH dependent FA-based apparent K analysis. (a-c) Determined apparent K from […]
fluorescence anisotropy binding curves (see figure S15) and plotted over time for compounds 1, 5 and 10. Results show a time dependent decrease in KD (increase in affinity) between 14-3-3γ and ERRγ as induced by the compounds over time. […]
temperatures are based on three independent experiments from which the average and standard deviations were determined using excel. […]

T1 sequence (P61981 whole entry, other chains not shown): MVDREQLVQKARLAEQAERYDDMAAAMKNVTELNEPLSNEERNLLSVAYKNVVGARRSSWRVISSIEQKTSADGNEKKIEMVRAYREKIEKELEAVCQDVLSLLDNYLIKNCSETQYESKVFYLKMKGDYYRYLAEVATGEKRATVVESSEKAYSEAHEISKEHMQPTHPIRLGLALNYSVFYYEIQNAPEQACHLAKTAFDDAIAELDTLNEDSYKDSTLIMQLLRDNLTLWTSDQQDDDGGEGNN

CN(C)CCSSCCN(C)C(=O)c1cccc(F)c1 [compound 1, reference compound]
binding kinetics (100 μM compound, TD-FA): significantly slower binding kinetics than molecular locks 4–10
incubation time to reach maximum effect (pH 6.5, 100 μM compound): 4.2 h

CN(C)CCSSCCN(C)C(=O)c1ccc(C=O)c(F)c1 [compound 5]
binding kinetics (100 μM compound, TD-FA): fastest reaction kinetics
time to saturation of ternary complex formation (100 μM compound, TD-FA): 2 h
